According to paper PMC11175440, “Exploring hydrophilic 2,2-di(indol-3-yl)ethanamine derivatives against Leishmania infantum” (PLOS ONE, 2024):
pIC50: −log10 of the molar value. “Also recorded” adds a separate entry of the source.

Key:
[1] = tested on: L. infantum MHOM/TN/80/IPT1 promastigotes; assay: L. infantum promastigotes viability assay; assay type: cell-based; details: 72 h; for IC50: scalar dilutions from 20 to 0.31 μM, mean and 95% CI; for inhibition at 20 µM: single dose 20 μM, 26°C
Procedure: The reference strain L. infantum MHOM/TN/80/IPT1 (WHO international reference strain) was purchased from ATCC (ATCC® 50134™) and cultured in Evans’s Modified Tobie Medium (EMTM) at 26–28°C. During the treatment with bisindole derivative compounds, the parasites were maintained in RPMI-PY medium as described previously
The activity of bisindole derivatives was first evaluated on late log/stationary phase L. infantum promastigotes resuspended in 96-well plates (100 μL/well) in complete RPMI-PY medium with a density of 2.5×10^6 parasites/mL. The anti-parasitic activity was initially investigated with the single dose of 20 μM of each compound for 72 h at 26°C. […] As positive control, the anti-leishmanial drug miltefosine (Sigma-Aldrich, Milan, Italy) was included. Each condition was carried out in duplicate. The promastigotes viability was evaluated using the CellTiter 96H aqueous non-radioactive cell proliferation assay (Promega, Madison, Wisconsin, USA), as previously reported. The efficacy of selected compounds was evaluated by determining the IC50 values using the non-linear regression curves in GraphPad Prism 8.0 (GraphPad Software, Inc., San Diego, CA, USA). The equation used for data fitting was Y = 100/(1+10^((LogIC50-X)*HillSlope)) (hillslope not constrained), where X is equal to the log of concentration and Y is the normalized response.

[2] = Cytotoxicity assay on PMA-differentiated THP-1 macrophage-like cells; assay type: cell-based, human; details: human, PMA-differentiated THP-1 macrophage-like cells; 72 h, scalar dilutions from 100 to 3.12 μM; mean and 95% CI
Procedure: (§1) The human monocytic cell line THP-1 (ECACC 88081201) was cultured in RPMI-1640 medium supplemented with 10% heat-inactivated fetal bovine serum (FBS), 2 mM L-glutamine, 10 g/L non-essential amino acid, 1 mM sodium pyruvate, 100 μg/mL streptomycin, […]. Cells were maintained in a humidified incubator at 37°C and 5% CO2. All cell culture reagents were purchased from Sigma-Aldrich (St. Louis, MO, USA).
(§2) The cytotoxicity of bisindole derivative compounds was evaluated on THP-1 cells. Briefly, cells were resuspended at a density of 5×10^6 cells/mL, 100 μL/well were seeded in a 96-well plate and treated for 48 h with 20 ng/mL phorbol myristic acid (PMA) to induce differentiation into macrophages-like cells. After cell adhesion, selected compounds were used at 4, 20, and 100 μM, for 72 h at 37°C. […] Compounds with cytotoxicity higher than 20 μM were further tested to determine CC50 with scalar dilutions 1:2 or 2:3 (from 100 to 3.12 μM).
(§3) The negative control (not-treated cells) and the anti-leishmanial drug miltefosine were included in each experiment. Each condition was carried out in duplicate. To evaluate the cytotoxicity of the selected compounds, the CellTiter 96H Aqueous Non-Radioactive Cell Proliferation Assay (Promega) was performed as described above. For each compound, the SI was calculated as the ratio between cytotoxicity in THP-1 and activity against L. infantum promastigotes.

THP-1 cells = assay: as above; assay type: cell-based, human; details: CC50 in THP-1 / IC50 against L. infantum promastigotes
Procedure: as §1, §2, §3

infected THP-1 cells = assay: Cytotoxic effect on infected THP-1 cells (cell count, Hoechst staining); assay type: cell-based, human; details: 72 h, 1.25-20 μM
Procedure: THP-1 cells were plated in a 96-well plate and differentiated as described above. After differentiation, cells were infected with a parasite-to-cell ratio of 10:1 for 24 h with L. infantum MHOM/TN/80/IPT1 promastigotes previously stained with carboxyfluorescein succinimidyl ester (CFSE) dye (Invitrogen, Waltham, Massachusetts, USA) following manufacturer’s instructions. Briefly, Leishmania cells were washed twice with PBS to remove any trace of serum and resuspended 1×10^7/mL PBS. CFSE was then added at 5 μM final concentration, and promastigotes were incubated for 15 min at 37°C in the dark. The labeling was stopped by adding 4 volumes of cold complete media containing 10% serum and incubating in ice for 5 min. Labeled parasites were washed three times with complete RPMI medium and used for the infection. […] To analyze the infection, cells were washed, formaldehyde/methanol fixed, stained with Hoechst dye, and observed with a fluorescence microscope. Images were acquired (at 5× magnification) at 494 nm excitation/521 nm emission (green) and 350 nm excitation/460 emission (blue) for CFSE and Hoechst staining, respectively. Automated cell counting of single-color images was performed with ImageJ software to monitor the infection: the promastigotes count on each green image was normalized with the cell count on the corresponding blue image. The normalized value of infected non-treated cells was taken as 100%. To calculate IC50, the percentage values of Leishmania cell count normalized to THP-1 cells were plotted against the log10 concentration (μM) of each compound.
(B) The effect of treatment was monitored by counting the number of cells. Data are represented as mean ± SD. Two-way ANOVA; Dunnett’s multiple comparisons test; *adjusted p < 0.05, **adjusted p < 0.01.

[3] = tested on: L. infantum intracellular amastigotes; assay: Anti-amastigote assay on infected THP-1 cells; assay type: cell-based; details: Leishmania infantum; THP-1 cells infected 24 h, 72 h treatment, 20 to 0.31 μM; read-out: IC50 against L. infantum intracellular amastigotes
Procedure: THP-1 cells were plated in a 96-well plate and differentiated as described above. […] Briefly, Leishmania cells were washed twice with PBS to remove any trace of serum and resuspended 1×10^7/mL PBS. […] Labeled parasites were washed three times with complete RPMI medium and used for the infection. […] To analyze the infection, cells were washed, formaldehyde/methanol fixed, stained with Hoechst dye, and observed with a fluorescence microscope. Images were acquired (at 5× magnification) at 494 nm excitation/521 nm emission (green) and 350 nm excitation/460 emission (blue) for CFSE and Hoechst staining, respectively. Automated cell counting of single-color images was performed with ImageJ software to monitor the infection: the promastigotes count on each green image was normalized with the cell count on the corresponding blue image. […] To calculate IC50, the percentage values of Leishmania cell count normalized to THP-1 cells were plotted against the log10 concentration (μM) of each compound.

[4] = tested on: L. infantum (MHOM/MA/67/ITMAP-263) axenic amastigotes; assay: In vivo anti-amastigote activity in BALB/c mice infection model (limiting dilution parasite burden); details: all the organs (spleen, liver, bone marrow); miltefosine 10 mg/kg/day per os, 10 days
Procedure: (§4) The compound URB1483 was selected for the in vivo evaluation on a BALB/c mice infection model. Six- to seven-week-old BALB/c mice were purchased from Charles River Laboratories (Barcelona, Spain) or the I3S (Porto, Portugal) animal facility. Luciferase-expressing L. infantum (MHOM/MA/67/ITMAP-263) axenic amastigotes were cultured in complete cell-free medium MAA/20 [20] at 37°C with 5% CO2. Five-day-old cultures of amastigotes were washed twice with PBS and resuspended at a concentration of 1×10^9 parasites/Ml. A total of 17 mice were infected with 100 μL of parasite suspension containing 1×10^8 parasites. The injection was performed intra-venously (IV) in the tails of mice, and treatments started 21 days post-infection for 10 consecutive days. Formulation studies are reported in the Supporting Information (S1 Table in S1 File). […]
(§5) Mice well-being-assessment was checked every two days, in terms of weight control and the presence of stress signs. […] Spleen and liver were weighted, and bone marrow cells were counted with automatic cell counter EVE^TM (NanoEnTek, Seul, Korea). […] For bone marrow, the number of parasites was calculated per 10^5 cells using the formula: [(geometric mean of reciprocal titer from each triplicate/number of cells) × reciprocal fraction of the cells inoculated into the first well]. […]

[5] = Well-being, body weight and organ weight of infected and treated BALB/c mice; assay type: in vivo; details: miltefosine 10 mg/kg/day per os
Procedure: as §4, §5

IC50 ([1]; Leishmania infantum) [µM]	SMILES	inhibition at 20 µM ([1]; Leishmania infantum) [%]	CC50 at 72 h [2] [µM]	SI (CC50/IC50) (THP-1 cells)	other results
> 10	NCC(c1c[nH]c2ccccc12)c1c[nH]c2ccccc12 [1a]	82.3			IC50 [1]: 12.9 µM
8.6	NCC(c1c[nH]c2cc(F)ccc12)c1c[nH]c2cc(F)ccc12 [1b]	89.1	40.4	4.7	
7.4	NCC(c1c[nH]c2cc(Cl)ccc12)c1c[nH]c2cc(Cl)ccc12 [1c]	95.6	39.4	5.3	
	NCC(c1c[nH]c2cc(Br)ccc12)c1c[nH]c2cc(Br)ccc12 [1d, 2,2-bis(6-bromo-1H-indol-3-yl)ethanamine]	96.8			
	NCC(c1c[nH]c2ccc(I)cc12)c1c[nH]c2ccc(I)cc12 [1e]	97.8			
8.2	COC(=O)c1ccc2c(C(CN)c3c[nH]c4cc(C(=O)OC)ccc34)c[nH]c2c1 [1f]	89.7	40.1	4.9	
	N#Cc1ccc2[nH]cc(C(CN)c3c[nH]c4ccc(C#N)cc34)c2c1 [1g]	-1.6			
4.1	Cn1cc(C(CN)c2cn(C)c3ccccc23)c2ccccc21 [1h]	98	41.6	10.1	cytotoxicity in the infection model (infected THP-1 cells): better toxicity profile than the commercial drug miltefosine; also recorded: better toxicity profile compared to the commercial drug miltefosine; pIC50 [3]: 4.95
	Cn1cc(C(CN)c2cn(C)c3cc(Br)ccc23)c2ccc(Br)cc21 [1i]	98			
	CC(C)CNCC(c1c[nH]c2cc(Br)ccc12)c1c[nH]c2cc(Br)ccc12 [2a]	97.8			
	Fc1ccc(CNCC(c2c[nH]c3cc(Br)ccc23)c2c[nH]c3cc(Br)ccc23)cc1 [2b]	98.2			
2.7	Clc1ccc(CNCC(c2c[nH]c3cc(Br)ccc23)c2c[nH]c3cc(Br)ccc23)cc1 [2c]	98.1	11.7	4.3	cytotoxicity in the infection model (infected THP-1 cells): high cellular toxicity; pIC50 [3]: 5.17
3.9	O=[N+]([O-])c1ccc(CNCC(c2c[nH]c3cc(Br)ccc23)c2c[nH]c3cc(Br)ccc23)cc1 [2d]	95	13.2	3.4	
	Cc1ccc(CNCC(c2c[nH]c3cc(Br)ccc23)c2c[nH]c3cc(Br)ccc23)cc1 [2e]	95.8			
	Brc1ccc2c(C(CNCc3ccco3)c3c[nH]c4cc(Br)ccc34)c[nH]c2c1 [2f]	95.2			
	Brc1ccc2c(C(CNCc3cccs3)c3c[nH]c4cc(Br)ccc34)c[nH]c2c1 [2g]	95.5			
	CC(C)C(=O)NCC(c1c[nH]c2cc(Br)ccc12)c1c[nH]c2cc(Br)ccc12 [3a]	96.7			
9.5	O=C(NCC(c1c[nH]c2cc(Br)ccc12)c1c[nH]c2cc(Br)ccc12)c1ccc(F)cc1 [3b]	97.7	21.9	2.3	
	O=C(NCC(c1c[nH]c2cc(Br)ccc12)c1c[nH]c2cc(Br)ccc12)c1ccc(Cl)cc1 [3c]	97.4			
	O=C(NCC(c1c[nH]c2cc(Br)ccc12)c1c[nH]c2cc(Br)ccc12)c1ccc([N+](=O)[O-])cc1 [3d]	90.4			
> 10	COc1ccc(C(=O)NCC(c2c[nH]c3cc(Br)ccc23)c2c[nH]c3cc(Br)ccc23)cc1 [3e]	95.2			IC50 [1]: 12.2 µM
	O=C(NCC(c1c[nH]c2cc(Br)ccc12)c1c[nH]c2cc(Br)ccc12)c1ccco1 [3f]	97.2			
	O=C(NCC(c1c[nH]c2cc(Br)ccc12)c1c[nH]c2cc(Br)ccc12)c1cccs1 [3g]	96.9			
9.8	Cc1ccc(S(=O)(=O)NCC(c2c[nH]c3cc(Br)ccc23)c2c[nH]c3cc(Br)ccc23)cc1 [4a]	96.9	20.2	2.1	
	Cc1ccc(S(=O)(=O)NCC(c2cn(C)c3ccccc23)c2cn(C)c3ccccc23)cc1 [4b]	45.7			
	O=S(=O)(NCC(c1c[nH]c2cc(Br)ccc12)c1c[nH]c2cc(Br)ccc12)c1cccs1 [4c]	97.6			

SMILES	IC50 ([1]; Leishmania infantum) [µM]	inhibition at 20 µM ([1]; Leishmania infantum) [%]	CC50 at 72 h [2] [µM]	SI (CC50/IC50) (THP-1 cells)	other results
CCCCCCCCCCCCCCCCOP(=O)([O-])OCC[N+](C)(C)C [miltefosine, reference compound]	3.6	96.7	36.7	10.2	reduction of parasite burden [4]: more than 99.9%; pIC50 [3]: 5.74; spleen weight ([5]; after 10 days of treatment, versus non-treated infected group): significantly lower to the non-treated group; weight decrease ([5]; infected BALB/c mice, from the second treatment): 10%
